Reference: paper PMC9598656, “In Vitro Activity of Robenidine Analogues NCL259 and NCL265 against Gram-Negative Pathogens” (Antibiotics, 2022)
≈ marks a conversion by molar mass, not a printed value.

Assays:
Format in all cases: cell-based
[1] = test system: HEL 299 (non-cancerous human lung fibroblast cell line); test: In vitro cytotoxicity, WST-1; settings: HEL 299, 24 h
Text: (§1) Potential toxicity of NCL259 and NCL265 to mammalian cells relative to the parent compound (NCL812) was examined using Caco-2 (human colorectal adenocarcinoma cell line), HEL 299 (non-cancerous human lung fibroblast cell line), Hep G2 (human hepatocellular carcinoma cell line), MCF-7 (human mammary gland adenocarcinoma cell line), MDBK (normal Madin–Darby bovine kidney cell line) and Vero (normal adult African green monkey cell line), essentially as described previously. Toxicity to the cell lines was performed using serial two-fold dilutions of each compound from 128 to 1 μg/mL in duplicates in flat bottom 96 well tissue culture trays (Sarstedt 83.3924) containing approximately 2 × 10^4 cells per well in antibiotic-free Dulbecco’s Modified Eagle’s Medium (DMEM; Gibco Cat No: 12430; Thermo Fisher Scientific, Scoresby, VIC, Australia) consisting of 10% (v/v) fetal bovine serum at 37 °C, 5% CO2 for 24 h. Duplicate wells containing ampicillin at 128 to 1 μg/mL were used as controls. Thereafter, 10% (v/v) of the WST-1 cell proliferation assay reagent (Cat No: 05015944001; Roche Life Science, North Ryde, NSW, Australia) was added to each well, the trays were further incubated at 37 °C, 5% CO2 for 1 h and absorbance read at A450nm on a Multiskan Ascent 354 Spectrophotometer (Labsystems, Lilydale, VIC, Australia). The inhibitory concentration of each compound was determined as the half maximal inhibitory concentration (IC50) at A450nm.

[2] = test system: Hep G2 (human hepatocellular carcinoma cell line); test: In vitro cytotoxicity, WST-1; settings: HepG2, 24 h
Text: as §1

[3] = test system: MCF-7 (human mammary gland adenocarcinoma cell line); test: In vitro cytotoxicity, WST-1; settings: MCF7, 24 h
Text: as §1

[4] = test system: MDBK (normal Madin–Darby bovine kidney cell line); test: In vitro cytotoxicity, WST-1; settings: Bos taurus, 24 h
Text: as §1

[5] = test system: Vero (normal adult African green monkey cell line); test: In vitro cytotoxicity, WST-1; settings: Chlorocebus sabaeus, 24 h
Text: as §1

[6] = test system: sheep red blood cells (SRBCs); test: Hemolysis assay; settings: 1 h
Experimental: The haemolytic activity of the compounds was determined using 1% sheep red blood cells (SRBCs), as described previously. […]. After incubation at 37 °C with shaking at 100 rpm for 1 h, the trays were centrifuged at 1000× g for 3 min and 100 μL of supernatant from each well was transferred into a new 96-well tray. Absorbance was measured at A450nm on a Multiskan Ascent 354 Spectrophotometer (Labsystems) and plotted against each dilution. The haemolytic titre (HC50) of each compound was determined as the reciprocal of the dilution at which 50% of SRBCs were lysed at A450nm.

[7] = test system: Caco-2 (human colorectal adenocarcinoma cell line); test: In vitro cytotoxicity, WST-1; settings: Caco-2, 24 h
[8] = first of two independent experiments
[9] = second of two independent experiments

Structure (SMILES)	IC50 [1, 8]	IC50 [1, 9]	IC50 [2, 8]	IC50 [2, 9]	IC50 [3, 8]	IC50 [3, 9]	IC50 [4, 8]	IC50 [4, 9]	IC50 [5, 8]	IC50 [5, 9]	HC50 ([6]; 1% SRBC, first of two independent experiments)	HC50 ([6]; 1% SRBC, second of two independent experiments)	IC50 [7, 8]	IC50 [7, 9]	HC50 ([6]; sheep)
CC1(C)S[C@@H]2[C@H](NC(=O)[C@H](N)c3ccccc3)C(=O)N2[C@H]1C(=O)O [Ampicillin, reference compound]	> 128 µg/mL	> 128 µg/mL	> 128 µg/mL	> 128 µg/mL	> 128 µg/mL	> 128 µg/mL	> 128 µg/mL	> 128 µg/mL	> 128 µg/mL	> 128 µg/mL	>128, >128 μg/mL	>128, >128 μg/mL	–	–	–
N=C(N/N=C/c1ccc(Cl)cc1)N/N=C/c1ccc(Cl)cc1 [NCL812, Robenidine]	8 µg/mL (≈ 23.9 µM)	6 µg/mL (≈ 18 µM)	6 µg/mL (≈ 18 µM)	8 µg/mL (≈ 23.9 µM)	8 µg/mL (≈ 23.9 µM)	12 µg/mL (≈ 35.9 µM)	8 µg/mL (≈ 23.9 µM)	12 µg/mL (≈ 35.9 µM)	8 µg/mL (≈ 23.9 µM)	4 µg/mL (≈ 12 µM)	–	–	8 µg/mL (≈ 23.9 µM)	12 µg/mL (≈ 35.9 µM)	32, 32 μg/mL
